Measured values published in patent EP2982680B1, “PROTAMINE PEPTIDOMIMETIC, AND PHARMACEUTICALLY ACCEPTABLE SALTS AND USE THEREOF” (Academy of Military Medical Sciences, priority 2013, dated 2014).
Where a SMILES comes first, the peptide text is derived from it. Where no end group is shown, it is not given here.

Tests used:
[1] = amino acid; cited from earlier work
[2] = Water solubility of synthesized peptides
heparin = assay: Antagonism of protamine-like peptides against heparin anticoagulation in vitro (heparin neutralization, rabbit whole blood clotting); parameters: species or system New Zealand rabbits; conditions: for Amount of neutralized heparin (U/mg) Mean ± SD: average from five tests; for Amount of neutralized heparin (U/mg) Mean ± SD / Clotting time / Amount of neutralized heparin (U/mg) 1 / Amount of neutralized heparin (U/mg) 2 / Amount of neutralized heparin (U/mg) 3 / Amount of neutralized heparin (U/mg) 4 / Amount of neutralized heparin (U/mg) 5: rabbit whole blood added with heparin; for I (Anti-heparin index): concentration of polypeptide/1 unit of heparin, lower index = better antagonism; for Clotting time: 37 °C, blank control 10.62±0.49; for Amount of neutralized heparin (U/mg) 1: repeat 1 of 5; for Amount of neutralized heparin (U/mg) 1 / Amount of neutralized heparin (U/mg) 2 / Amount of neutralized heparin (U/mg) 3 / Amount of neutralized heparin (U/mg) 4 / Amount of neutralized heparin (U/mg) 5: test sample 1 mg per mL; for Amount of neutralized heparin (U/mg) 2: repeat 2 of 5; for Amount of neutralized heparin (U/mg) 3: repeat 3 of 5; for Amount of neutralized heparin (U/mg) 4: repeat 4 of 5; for Amount of neutralized heparin (U/mg) 5: repeat 5 of 5
Text: Reference standard of heparin was exactly weighed and then dissolved into several solutions with different concentrations by adding 0.9% sodium chloride solution according to the marked potency. The increment of heparin units per mL between two solutions having adjacent concentrations should be similar with no more than five units.
The test sample was the protamine-like peptide. If the test sample was in a powder form, it was accurately weighed on the basis of dry sample. Then, a solution of 0.9% sodium chloride was added thereto to provide a solution containing 1 mg of test sample per mL.
Eight small dry clean teat tubes with the same diameter (0.8 × 3.8 cm) were picked. Tube 1 and Tube 8 were used as the blank control into which 0.2 mL of 0.9% sodium chloride solution was added. Tube 2 to Tube 7 were used as the ones with test samples into each of which 0.1 ml of test solution was added together with 0.1 ml of heparin standard dilution having one concentration mentioned above. The mixture was well mixed immediately. An appropriate amount (0.8 ml) of whole blood freshly drawn from rabbits was added into these eight test tubes described above and then well mixed immediately to avoid generation of bubbles. Timing began at that time and the test tubes were all placed in a thermostatic water bath at 37 ± 0.5 °C. The interval between blood sampling and tube incubation in the thermostatic water bath should not be longer than two minutes. If the plasma was used, then 0.7 mL of plasma was added to each of the test tubes described above and then the test tubes were placed into a thermostatic water bath at 37 ± 0.5 °C to warm up for 5 to 10 minutes. Then, into each test tube, 0.1 mL of 1% calcium chloride solution was added and immediately mixed to avoid generation of bubbles. At that time, timing began. The test tubes were observed and the time until coagulation was recorded.
The clotting time in one control tube should not be more than 1.35 times longer than that in the other control tube. Among test tubes where the clotting time was no longer than 150% of the average coagulating time in two control tubes, the tube with the highest concentration of heparin was used as the endpoint tube.
The test was repeated for five times. The concentration of heparin in the endpoint tube was measured in all five tests, and the deviation was not allowed to be higher than 10 units. The average from five tests was deemed as the number of units of the heparin neutralized by 1 mg of the test sample (dry product) (the amount of neutralized heparin).
The anticoagulant time of heparin, i.e. the clotting time from the addition of the series of protamine-like peptides, were recorded where the clotting time in tubes with plasma but not heparin was considered as the control clotting time. The average value in each coagulation test was calculated, and ratio of the concentration in nmol of the added potamine-like peptide to 1 IU of neutralized heparin was regarded as the anti-heparin index (I) of the protamine-like peptide. Anti-heparin index = concentration of polypeptide/1 unit of heparin (nmol/U). [formula]

N=C(N)NCCC[C@H](N)C(=O)O [Arginine]
isoelectric point (pI) [1]: 10.76

N[C@@H](Cc1c[nH]cn1)C(=O)O [Histidine]
isoelectric point (pI) [1]: 7.59

NCCCC[C@H](N)C(=O)O [Lysine]
isoelectric point (pI) [1]: 9.74

N=C(N)NCCC[C@H](NC(=O)[C@H](CCCNC(=N)N)NC(=O)[C@@H](N)CCCNC(=N)N)C(=O)O [R3, (R)3] (H-Arg-Arg-Arg-OH)
water solubility [2]: good water solubility

N=C(N)NCCC[C@H](NC(=O)[C@H](CCCNC(=N)N)NC(=O)[C@H](CCCNC(=N)N)NC(=O)[C@H](CCCNC(=N)N)NC(=O)[C@H](CCCNC(=N)N)NC(=O)[C@H](CCCNC(=N)N)NC(=O)[C@@H](N)CCCNC(=N)N)C(=O)O [R7, (R)7]
water solubility [2]: good water solubility

N=C(N)NCCC[C@H](NC(=O)[C@H](CCCNC(=N)N)NC(=O)[C@H](CCCNC(=N)N)NC(=O)[C@H](CCCNC(=N)N)NC(=O)[C@H](Cc1c[nH]cn1)NC(=O)[C@H](CCCNC(=N)N)NC(=O)[C@H](CCCNC(=N)N)NC(=O)[C@H](CCCNC(=N)N)NC(=O)[C@H](CCCNC(=N)N)NC(=O)[C@H](CCCNC(=N)N)NC(=O)[C@H](CCCNC(=N)N)NC(=O)[C@H](CCCNC(=N)N)NC(=O)[C@H](CCCNC(=N)N)NC(=O)[C@H](CCCNC(=N)N)NC(=O)[C@@H](N)CCCNC(=N)N)C(=O)O [R15-5]
water solubility [2]: good water solubility

KKKKKKKKKKKKKKK [K15, (K)15]
water solubility [2]: good water solubility

RRRRR [R5, (R)5]
water solubility [2]: good water solubility

RRRRRRHRRRRRRRR [R15-8, R15-H, H in the middle]
water solubility [2]: good water solubility | Amount of neutralized heparin (U/mg) Mean ± SD (heparin): 108.4±1.32 U/mg | I (Anti-heparin index) (heparin): 3.93 nmol/U | Clotting time (heparin): 14.35 ± 0.38 min | Amount of neutralized heparin (U/mg) 1 (heparin): 110 U/mg | Amount of neutralized heparin (U/mg) 2 (heparin): 105 U/mg | Amount of neutralized heparin (U/mg) 3 (heparin): 105 U/mg | Amount of neutralized heparin (U/mg) 4 (heparin): 112 U/mg | Amount of neutralized heparin (U/mg) 5 (heparin): 110 U/mg

RRRRRRRRRRRRRHR [R15-2, R15-H, H off-center]
water solubility [2]: good water solubility | Amount of neutralized heparin (U/mg) Mean ± SD (heparin): 110±1.342 U/mg | I (Anti-heparin index) (heparin): 4.66 nmol/U | Clotting time (heparin): 13.35 ± 0.56 min | Amount of neutralized heparin (U/mg) 1 (heparin): 110 U/mg | Amount of neutralized heparin (U/mg) 2 (heparin): 113 U/mg | Amount of neutralized heparin (U/mg) 3 (heparin): 110 U/mg | Amount of neutralized heparin (U/mg) 4 (heparin): 110 U/mg | Amount of neutralized heparin (U/mg) 5 (heparin): 110 U/mg

RRRRRRRRRRRRRRRRRRRR [R20, (R)20]
water solubility [2]: good water solubility
